Values quoted from earlier work as cited in patent US8445670B2, “Combinatorial library approach to iminocyclitols with biological activity” (United Therapeutics Corporation, priority 2005, dated 2013).
pIC50: −log10 of the molar value.

Test system: bovine viral diarrhoea virus (BVDV)
Settings: reference DNJ derivatives, values given with literature references

SMILES | pIC50
CCCCN1C[C@H](O)[C@@H](O)[C@H](O)[C@H]1CO [N-n-butyl DNJ] | 3.90
CCCCCCCCCN1C[C@H](O)[C@@H](O)[C@H](O)[C@H]1CO [N-n-nonyl DNJ] | 5.00
